# Results from US10555909B2, “Microencapsulation of B-alanine” (INNOBIO CORPORATION LIMITED, priority 2015, dated 2020).
# Where “and” joins values, the source holds several entries; their conditions need not be identical. Identical values can stand only once.
# Columns and labels:
# [1] = Release rate experiment, USP <711> Dissolution, Apparatus 2, 50 rpm, delayed-release method B; assay type: physicochemical
# Procedure: Regarding to the measurement to the release rate in the present invention, the release rate experiment in 0.1N hydrochloric acid solution and pH6.8 phosphate buffer is conducted referring to USP<711>DISSOLUTIO and using Apparatus 2 with a rotate speed of 50 rpm by DELAYED-RELEASE DOSAGE FORMS method B.
# [2] = Size distribution of β-alanine before and after sustained-release microencapsulation; assay type: physicochemical
# [3] = Tingling sensation evaluation after oral administration; assay type: in vivo
# Procedure: The evaluation method of the tingling sensation in the present invention is that: a subject respectively administrates unsustained-release microencapsulated material containing a certain amount of β-alanine and sustained-release microencapsulated β-alanine. The time, intensity and duration of having the abnormal sensation are recorded.
# The tingling sensation after oral administration of the β-alanine products A and D in Table 1 was evaluated according to a tingling sensation evaluation method, and an administration dosage, based on the β-alanine, is 22.8 mg/Kg (body weight).
# In the tingling evaluation experiment in Table 5, the dosage of the subject was 45.7 mg/kg (body weight).
structure (smiles),measurement,setting,value
"NCCC(=O)O [Product A, β-alanine]",Release in 0.1N hydrochloric acid solution (in words),[1]; 0.1N hydrochloric acid solution,quickly and completely released
same,Release in pH6.8 phosphate buffer (in words),[1]; pH6.8 phosphate buffer,quickly and completely released
same,Size distribution 300-450 μm,[2]; fraction 300-450 μm,0%
same,Size distribution 450-900 μm,[2]; fraction 450-900 μm,43.7%
same,Size distribution 900-1000 μm,[2]; fraction 900-1000 μm,56.3%
same,Dissolution in water (in words),,easy to be dissolved in water
same,Administration evaluation: Intensity,"[3]; 22.8 mg/Kg body weight based on β-alanine, one value per subject, 0 no sensation, 1-5 acceptable, 6-10 unacceptable",6 (2×) and 7
same,Duration of the abnormal sensation (lasting for),"[3]; 22.8 mg/Kg, per subject",45 min and lasting for 30 min. and 1 h
same,Time of having the abnormal sensation (onset),"[3]; 22.8 mg/Kg, per subject","15 min and sensation in the hands, face and ears in 10 min, and 25 min"
